Experimental data from PubChem BioAssay (NCI).
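Assay format: 96-well plates, 48-hour exposure. The concentration for 50% growth inhibition is given as GI50. TGI is the concentration that stops growth completely.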

Legend:
Assay in all cases: NCI tumour cell line growth inhibition, 48 h
[1] = test system: 786-0 renal
[2] = test system: A498 renal
[3] = test system: A549 NSCLC
[4] = test system: ACHN renal
[5] = test system: BT-549 breast
[6] = test system: CAKI-1 renal
[7] = test system: CCRF-CEM leukemia
[8] = test system: COLO 205 colon
[9] = test system: DU-145 prostate
[10] = test system: EKVX NSCLC
[11] = test system: HCC-2998 colon
[12] = test system: HCT-116 colon
[13] = test system: HCT-15 colon
[14] = test system: HL-60(TB) leukemia
[15] = test system: HOP-62 NSCLC
[16] = test system: HOP-92 NSCLC
[17] = test system: HS 578T breast
[18] = test system: HT29 colon
[19] = test system: IGROV1 ovarian
[20] = test system: K-562 leukemia
[21] = test system: KM12 colon
[22] = test system: LOX IMVI melanoma
[23] = test system: M14 melanoma
[24] = test system: MALME-3M melanoma
[25] = test system: MCF7 breast
[26] = test system: MDA-MB-231 breast
[27] = test system: MDA-MB-435
[28] = test system: MOLT-4 leukemia
[29] = test system: NCI-H226 lung
[30] = test system: NCI-H23 lung
[31] = test system: NCI-H460 lung
[32] = test system: NCI-H522 lung
[33] = test system: NCI/ADR-RES ovarian
[34] = test system: OVCAR-3 ovarian
[35] = test system: OVCAR-4 ovarian
[36] = test system: OVCAR-5 ovarian
[37] = test system: OVCAR-8 ovarian
[38] = test system: PC-3 prostate
[39] = test system: RPMI-8226 leukemia
[40] = test system: RXF 393 renal
[41] = test system: SF-268 CNS
[42] = test system: SF-295 CNS
[43] = test system: SF-539 CNS
[44] = test system: SK-MEL-2 melanoma
[45] = test system: SK-MEL-28 melanoma
[46] = test system: SK-MEL-5 melanoma
[47] = test system: SK-OV-3 ovarian
[48] = test system: SN12C renal
[49] = test system: SNB-19 CNS
[50] = test system: SNB-75 CNS
[51] = test system: SR leukemia
[52] = test system: SW-620 colon
[53] = test system: T-47D breast
[54] = test system: TK-10 renal
[55] = test system: U251 CNS
[56] = test system: UACC-257 melanoma
[57] = test system: UACC-62 melanoma
[58] = test system: UO-31 renal

Cc1[nH]nc(C(=O)n2nc(N)c3ccccc32)c1[N+](=O)[O-]
GI50 [1]: > 100 µM | TGI [1]: > 100 µM | GI50 [2]: > 100 µM | TGI [2]: > 100 µM | GI50 [3]: > 100 µM | TGI [3]: > 100 µM | GI50 [4]: > 100 µM | TGI [4]: > 100 µM | GI50 [5]: > 90.8 µM | TGI [5]: > 100 µM | GI50 [6]: > 100 µM | TGI [6]: > 100 µM | GI50 [7]: 32.2 µM | TGI [7]: > 100 µM | GI50 [8]: > 100 µM | TGI [8]: > 100 µM | GI50 [9]: > 100 µM | TGI [9]: > 100 µM | GI50 [10]: > 100 µM | TGI [10]: > 100 µM | GI50 [11]: > 100 µM | TGI [11]: > 100 µM | GI50 [12]: > 100 µM | TGI [12]: > 100 µM | GI50 [13]: > 63.5 µM | TGI [13]: > 100 µM | TGI [14]: > 100 µM | GI50 [15]: > 100 µM | TGI [15]: > 100 µM | GI50 [16]: 56.4 µM | TGI [16]: > 100 µM | GI50 [17]: > 100 µM | TGI [17]: > 100 µM | GI50 [18]: > 100 µM | TGI [18]: > 100 µM | GI50 [19]: 37.5 µM | TGI [19]: > 100 µM | GI50 [20]: > 100 µM | TGI [20]: > 100 µM | GI50 [21]: > 100 µM | TGI [21]: > 100 µM | GI50 [22]: > 39.5 µM | TGI [22]: > 100 µM | GI50 [23]: > 100 µM | TGI [23]: > 100 µM | GI50 [24]: > 100 µM | TGI [24]: > 100 µM | GI50 [25]: > 100 µM | TGI [25]: > 100 µM | GI50 [26]: > 100 µM | TGI [26]: > 100 µM | GI50 [27]: > 100 µM | TGI [27]: > 100 µM | GI50 [28]: > 89.4 µM | TGI [28]: > 100 µM | GI50 [29]: > 100 µM | TGI [29]: > 100 µM | GI50 [30]: > 100 µM | TGI [30]: > 100 µM | GI50 [31]: > 100 µM | TGI [31]: > 100 µM | GI50 [32]: > 100 µM | TGI [32]: > 100 µM | GI50 [33]: > 100 µM | TGI [33]: > 100 µM | GI50 [34]: > 100 µM | TGI [34]: > 100 µM | GI50 [35]: > 100 µM | TGI [35]: > 100 µM | GI50 [36]: > 100 µM | TGI [36]: > 100 µM | GI50 [37]: > 100 µM | TGI [37]: > 100 µM | GI50 [38]: > 100 µM | TGI [38]: > 100 µM | GI50 [39]: > 100 µM | TGI [39]: > 100 µM | GI50 [40]: > 100 µM | TGI [40]: > 100 µM | GI50 [41]: > 100 µM | TGI [41]: > 100 µM | GI50 [42]: > 100 µM | TGI [42]: > 100 µM | GI50 [43]: > 100 µM | TGI [43]: > 100 µM | GI50 [44]: > 100 µM | TGI [44]: > 100 µM | GI50 [45]: > 100 µM | TGI [45]: > 100 µM | GI50 [46]: > 100 µM | TGI [46]: > 100 µM | GI50 [47]: > 100 µM | TGI [47]: > 100 µM | GI50 [48]: > 100 µM | TGI [48]: > 100 µM | GI50 [49]: > 100 µM | TGI [49]: > 100 µM | GI50 [50]: 26.9 µM | TGI [50]: > 88.9 µM | GI50 [51]: 26.2 µM | TGI [51]: > 100 µM | GI50 [52]: > 100 µM | TGI [52]: > 100 µM | GI50 [53]: > 100 µM | TGI [53]: > 100 µM | GI50 [54]: > 100 µM | TGI [54]: > 100 µM | GI50 [55]: > 57.2 µM | TGI [55]: > 100 µM | GI50 [56]: > 100 µM | TGI [56]: > 100 µM | GI50 [57]: > 100 µM | TGI [57]: > 100 µM | GI50 [58]: > 78.6 µM | TGI [58]: > 100 µM

Cc1ccc2nc(-c3ccc(N(C)C)c(Br)c3)cn2c1
GI50 [1]: > 100 µM | TGI [1]: > 100 µM | GI50 [2]: > 100 µM | TGI [2]: > 100 µM | GI50 [3]: > 100 µM | TGI [3]: > 100 µM | GI50 [4]: > 100 µM | TGI [4]: > 100 µM | GI50 [5]: 63.3 µM | TGI [5]: > 100 µM | GI50 [6]: > 100 µM | TGI [6]: > 100 µM | GI50 [7]: 6.52 µM | TGI [7]: > 100 µM | GI50 [8]: > 100 µM | TGI [8]: > 100 µM | GI50 [9]: > 100 µM | TGI [9]: > 100 µM | GI50 [10]: > 100 µM | TGI [10]: > 100 µM | GI50 [11]: > 100 µM | TGI [11]: > 100 µM | GI50 [12]: 7.13 µM | TGI [12]: > 100 µM | GI50 [13]: 4.19 µM | TGI [13]: > 100 µM | GI50 [14]: 1.61 µM | TGI [14]: > 100 µM | GI50 [15]: > 100 µM | TGI [15]: > 100 µM | GI50 [16]: 44.4 µM | TGI [16]: > 100 µM | GI50 [17]: 25.3 µM | TGI [17]: > 100 µM | GI50 [18]: 7.02 µM | TGI [18]: > 100 µM | GI50 [20]: 2.93 µM | TGI [20]: > 100 µM | GI50 [21]: 54.1 µM | TGI [21]: > 100 µM | GI50 [22]: 35.2 µM | TGI [22]: > 100 µM | GI50 [23]: > 100 µM | TGI [23]: > 100 µM | GI50 [24]: > 100 µM | TGI [24]: > 100 µM | GI50 [25]: 27.8 µM | TGI [25]: > 100 µM | GI50 [26]: > 100 µM | TGI [26]: > 100 µM | GI50 [27]: 22.6 µM | TGI [27]: > 100 µM | GI50 [28]: 3.99 µM | TGI [28]: > 100 µM | GI50 [29]: > 100 µM | TGI [29]: > 100 µM | GI50 [30]: > 100 µM | TGI [30]: > 100 µM | GI50 [31]: 4.18 µM | TGI [31]: > 100 µM | GI50 [32]: > 100 µM | TGI [32]: > 100 µM | GI50 [33]: > 100 µM | TGI [33]: > 100 µM | GI50 [34]: > 100 µM | TGI [34]: > 100 µM | GI50 [35]: > 100 µM | TGI [35]: > 100 µM | GI50 [36]: > 100 µM | TGI [36]: > 100 µM | GI50 [37]: 17.4 µM | TGI [37]: > 100 µM | GI50 [38]: 5.69 µM | TGI [38]: > 100 µM | GI50 [39]: 3.93 µM | TGI [39]: > 100 µM | GI50 [40]: > 100 µM | TGI [40]: > 100 µM | GI50 [41]: 8.09 µM | TGI [41]: > 100 µM | GI50 [42]: > 100 µM | TGI [42]: > 100 µM | GI50 [43]: 8.14 µM | TGI [43]: > 100 µM | GI50 [44]: > 100 µM | TGI [44]: > 100 µM | GI50 [45]: 10.5 µM | TGI [45]: > 100 µM | GI50 [46]: 5.78 µM | TGI [46]: > 100 µM | GI50 [47]: > 100 µM | TGI [47]: > 100 µM | GI50 [48]: > 100 µM | TGI [48]: > 100 µM | GI50 [49]: 64.4 µM | TGI [49]: > 100 µM | GI50 [50]: 31.3 µM | TGI [50]: > 100 µM | GI50 [51]: 1.46 µM | TGI [51]: > 100 µM | GI50 [52]: 42.3 µM | TGI [52]: > 100 µM | GI50 [53]: > 100 µM | TGI [53]: > 100 µM | GI50 [54]: > 100 µM | TGI [54]: > 100 µM | GI50 [55]: 7.19 µM | TGI [55]: > 100 µM | GI50 [56]: > 100 µM | TGI [56]: > 100 µM | GI50 [57]: > 100 µM | TGI [57]: > 100 µM | GI50 [58]: > 100 µM | TGI [58]: > 100 µM
